Measured values as given in paper PMC9736855, “Discovery of 3-Amino-1H-pyrazole-Based Kinase Inhibitors to Illuminate the Understudied PCTAIRE Family” (International Journal of Molecular Sciences, 2022).

Experiments:
AKT3 = target: T1, AKT3 (Homo sapiens, UniProt Q9Y243); experiment: DSF; type: binding
T1 construct: purchased in-house DSF panel (SGC Frankfurt)
Description: (§2) Recombinant protein kinase domains with a concentration of 2 μM were mixed with a 10 μM compound solution in DMSO, 20 mM HEPES, pH 7.5, and 500 mM NaCl. SYPRO Orange (5000×, Invitrogen) was added as a fluorescence probe (1 µl per mL). Subsequently, temperature-dependent protein unfolding profiles were measured, using the QuantStudio™ 5 realtime PCR machine (Thermo Fisher, Waltham, MA, USA). […] The temperature was raised with a step rate of 3 °C per minute. Data points were analyzed with the internal software (Thermal Shift SoftwareTM Version 1.4, Thermo Fisher) using the Boltzmann equation to determine the inflection point of the transition curve [56]. Differences in melting temperature are given as ΔTm values in °C. Measurements were performed in duplicates.

DMPK1 = target: T2, DMPK1 (Homo sapiens, UniProt Q09013); experiment: DSF; type: binding
T2 construct: purchased in-house DSF panel (SGC Frankfurt)
T2 sequence (Q09013 1-629): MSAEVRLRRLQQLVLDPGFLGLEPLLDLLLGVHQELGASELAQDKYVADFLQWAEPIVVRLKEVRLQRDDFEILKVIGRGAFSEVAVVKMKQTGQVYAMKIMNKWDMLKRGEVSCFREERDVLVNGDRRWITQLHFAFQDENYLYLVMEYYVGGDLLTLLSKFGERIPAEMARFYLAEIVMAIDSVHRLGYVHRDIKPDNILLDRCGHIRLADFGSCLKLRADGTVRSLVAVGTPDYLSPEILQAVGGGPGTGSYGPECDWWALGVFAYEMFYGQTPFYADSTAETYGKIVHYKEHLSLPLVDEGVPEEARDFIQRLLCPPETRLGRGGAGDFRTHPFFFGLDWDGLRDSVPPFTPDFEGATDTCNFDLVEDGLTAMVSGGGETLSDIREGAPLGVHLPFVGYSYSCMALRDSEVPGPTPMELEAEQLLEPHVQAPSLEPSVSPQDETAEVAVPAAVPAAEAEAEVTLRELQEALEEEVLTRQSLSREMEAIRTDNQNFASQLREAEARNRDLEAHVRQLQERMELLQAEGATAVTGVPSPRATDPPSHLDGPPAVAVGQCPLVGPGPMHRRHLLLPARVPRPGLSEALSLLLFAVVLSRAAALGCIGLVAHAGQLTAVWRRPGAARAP
Description: as §2

EPHA5 = target: T3, EPHA5 (Homo sapiens, UniProt P54756); experiment: DSF; type: binding;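 also: compound tested at 10 µM with 2 µM protein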
T3 construct: purchased in-house DSF panel (SGC Frankfurt)
T3 sequence (P54756 653-939): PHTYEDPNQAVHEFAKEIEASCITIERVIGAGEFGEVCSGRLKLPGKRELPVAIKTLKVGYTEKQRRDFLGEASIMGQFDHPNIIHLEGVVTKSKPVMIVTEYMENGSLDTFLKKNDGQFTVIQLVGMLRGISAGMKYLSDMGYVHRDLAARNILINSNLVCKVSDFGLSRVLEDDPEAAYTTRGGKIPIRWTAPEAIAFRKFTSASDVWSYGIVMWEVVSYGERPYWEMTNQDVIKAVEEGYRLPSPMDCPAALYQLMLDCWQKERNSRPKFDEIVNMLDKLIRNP
Description: as §2

FGFR3 = target: T4, FGFR3 (Homo sapiens, UniProt P22607); experiment: DSF; type: binding
T4 construct: purchased in-house DSF panel (SGC Frankfurt)
T4 sequence (P22607 455-768): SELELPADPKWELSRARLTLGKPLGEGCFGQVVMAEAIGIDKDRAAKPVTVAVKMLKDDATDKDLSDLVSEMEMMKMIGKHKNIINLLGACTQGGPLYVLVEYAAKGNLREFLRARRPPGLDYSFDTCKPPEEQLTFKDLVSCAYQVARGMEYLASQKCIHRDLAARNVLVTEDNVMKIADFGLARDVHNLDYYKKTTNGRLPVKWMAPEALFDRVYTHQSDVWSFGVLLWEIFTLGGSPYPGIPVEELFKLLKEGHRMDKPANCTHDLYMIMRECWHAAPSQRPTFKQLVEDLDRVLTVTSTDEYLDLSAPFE
Description: as §2

MST4 = target: T5, MST4 (Homo sapiens, UniProt Q9P289); experiment: DSF; type: binding
T5 construct: purchased in-house DSF panel (SGC Frankfurt)
T5 sequence (Q9P289 1-300): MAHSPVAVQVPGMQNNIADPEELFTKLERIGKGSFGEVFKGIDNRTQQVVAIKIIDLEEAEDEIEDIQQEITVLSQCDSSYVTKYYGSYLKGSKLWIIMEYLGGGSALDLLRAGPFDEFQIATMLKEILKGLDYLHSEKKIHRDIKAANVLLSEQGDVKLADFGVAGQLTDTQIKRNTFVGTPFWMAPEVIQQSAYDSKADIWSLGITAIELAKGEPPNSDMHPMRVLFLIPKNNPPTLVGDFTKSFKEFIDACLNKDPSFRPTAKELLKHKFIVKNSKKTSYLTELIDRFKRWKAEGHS
Description: as §2

UKL3 = target: T6, UKL3 (Homo sapiens, UniProt Q6PHR2); experiment: DSF; type: binding;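 also: compound tested at 10 µM with 2 µM protein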
T6 construct: purchased in-house DSF panel (SGC Frankfurt)
T6 sequence (Q6PHR2 1-279): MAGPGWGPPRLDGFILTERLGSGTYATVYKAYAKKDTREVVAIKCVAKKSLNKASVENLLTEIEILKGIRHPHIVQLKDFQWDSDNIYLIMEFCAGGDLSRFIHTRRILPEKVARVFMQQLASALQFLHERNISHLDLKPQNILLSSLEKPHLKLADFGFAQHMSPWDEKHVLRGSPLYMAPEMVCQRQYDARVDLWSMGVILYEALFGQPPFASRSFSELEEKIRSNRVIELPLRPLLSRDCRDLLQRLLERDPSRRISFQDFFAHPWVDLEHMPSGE
Description: as §2

CDK1/Cyclin B1 = target: T7, CDK1/Cyclin B1 (Homo sapiens, UniProt P06493); experiment: NanoBRET; type: cell-based; settings: read-out: NanoBRET EC50 ± SEM CDK1/Cyclin B1
T7 construct: Full-length kinases were obtained as plasmids cloned in frame with a terminal NanoLuc-fusion; CS1810C170 (CCNB1); host or cells: HEK293T
T7 sequence (P06493 whole entry, the tested form may be a part): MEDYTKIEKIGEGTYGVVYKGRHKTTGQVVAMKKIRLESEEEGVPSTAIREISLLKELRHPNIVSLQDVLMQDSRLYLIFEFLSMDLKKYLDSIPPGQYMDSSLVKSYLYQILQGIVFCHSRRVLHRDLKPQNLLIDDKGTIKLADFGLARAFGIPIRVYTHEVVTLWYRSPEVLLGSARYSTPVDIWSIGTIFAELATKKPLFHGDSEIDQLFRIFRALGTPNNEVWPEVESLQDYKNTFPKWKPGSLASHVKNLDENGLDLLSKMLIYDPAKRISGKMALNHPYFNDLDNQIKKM
T7 sequence (P14635 whole entry partner, the tested form may be a part): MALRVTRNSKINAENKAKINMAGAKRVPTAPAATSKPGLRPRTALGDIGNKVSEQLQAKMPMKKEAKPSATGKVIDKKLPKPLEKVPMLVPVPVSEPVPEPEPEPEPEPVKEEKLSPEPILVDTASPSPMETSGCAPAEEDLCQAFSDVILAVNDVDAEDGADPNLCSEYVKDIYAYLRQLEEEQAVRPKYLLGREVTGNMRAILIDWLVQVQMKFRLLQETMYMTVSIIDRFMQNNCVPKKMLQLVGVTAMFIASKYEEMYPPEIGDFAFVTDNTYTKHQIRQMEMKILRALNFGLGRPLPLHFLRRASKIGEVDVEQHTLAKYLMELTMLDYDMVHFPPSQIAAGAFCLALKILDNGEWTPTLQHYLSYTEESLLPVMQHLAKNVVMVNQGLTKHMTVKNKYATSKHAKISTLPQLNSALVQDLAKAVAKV
Method in brief: (§1)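 Tracer displacement by the inhibitor was read as BRET (450 nm donor, 610 nm acceptor) in live HEK293T cells transiently expressing full-length NanoLuc-tagged kinase. Tracer was used at its KD,app, with 2 h equilibration at 37 °C; EC50 values came from a normalized 3-parameter curve.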

CDK5/CDK5R1 = target: T8, CDK5/CDK5R1 (Homo sapiens, UniProt Q00535); experiment: NanoBRET; type: cell-based; settings: read-out: NanoBRET EC50 ± SEM CDK5/CDK5R1
T8 construct: Full-length kinases were obtained as plasmids cloned in frame with a terminal NanoLuc-fusion; CS1810C173 (CDK5R1); host or cells: HEK293T
T8 sequence (Q00535 whole entry, the tested form may be a part): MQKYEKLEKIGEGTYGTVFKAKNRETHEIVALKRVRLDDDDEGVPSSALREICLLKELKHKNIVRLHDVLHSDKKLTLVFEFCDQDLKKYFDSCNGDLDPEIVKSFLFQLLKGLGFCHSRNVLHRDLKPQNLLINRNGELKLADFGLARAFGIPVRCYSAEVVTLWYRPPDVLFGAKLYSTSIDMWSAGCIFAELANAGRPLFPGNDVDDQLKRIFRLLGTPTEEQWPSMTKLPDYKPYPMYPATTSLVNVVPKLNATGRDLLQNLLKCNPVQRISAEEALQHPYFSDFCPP
T8 sequence (Q15078 whole entry partner, the tested form may be a part): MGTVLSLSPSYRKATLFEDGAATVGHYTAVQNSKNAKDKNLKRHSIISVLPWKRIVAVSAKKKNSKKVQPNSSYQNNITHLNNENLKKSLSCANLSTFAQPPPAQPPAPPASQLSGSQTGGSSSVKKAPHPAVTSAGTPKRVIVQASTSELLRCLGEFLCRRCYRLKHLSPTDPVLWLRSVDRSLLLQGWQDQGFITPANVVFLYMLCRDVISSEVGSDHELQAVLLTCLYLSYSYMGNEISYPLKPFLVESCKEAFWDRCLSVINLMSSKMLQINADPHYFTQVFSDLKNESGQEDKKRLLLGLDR
Method in brief: as §1

CDK5/CDK5R2 = target: T9, CDK5/CDK5R2 (Homo sapiens, UniProt Q00535); experiment: NanoBRET; type: cell-based; settings: read-out: NanoBRET EC50 ± SEM CDK5/CDK5R2
T9 construct: Full-length kinases were obtained as plasmids cloned in frame with a terminal NanoLuc-fusion; CS1810C174 (CDK5R2); host or cells: HEK293T
T9 sequence (Q00535 whole entry, the tested form may be a part): as the sequence (Q00535 whole entry, the tested form may be a part) above
T9 sequence (Q13319 whole entry partner, the tested form may be a part): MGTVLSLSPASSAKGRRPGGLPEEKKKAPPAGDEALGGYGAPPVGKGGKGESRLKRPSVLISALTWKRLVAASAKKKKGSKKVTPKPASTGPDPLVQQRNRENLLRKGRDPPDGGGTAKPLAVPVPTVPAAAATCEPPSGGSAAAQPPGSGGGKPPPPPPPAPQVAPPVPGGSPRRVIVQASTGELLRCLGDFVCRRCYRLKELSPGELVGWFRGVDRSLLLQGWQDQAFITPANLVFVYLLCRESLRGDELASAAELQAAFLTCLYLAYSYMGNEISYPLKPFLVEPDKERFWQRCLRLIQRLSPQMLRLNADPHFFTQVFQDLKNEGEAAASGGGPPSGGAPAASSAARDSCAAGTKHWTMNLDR
Method in brief: as §1

EPHB1 = target: T10, EPHB1 (Homo sapiens, UniProt P54762); experiment: DSF; type: binding
T10 construct: purchased in-house DSF panel (SGC Frankfurt)
T10 sequence (P54762 602-896): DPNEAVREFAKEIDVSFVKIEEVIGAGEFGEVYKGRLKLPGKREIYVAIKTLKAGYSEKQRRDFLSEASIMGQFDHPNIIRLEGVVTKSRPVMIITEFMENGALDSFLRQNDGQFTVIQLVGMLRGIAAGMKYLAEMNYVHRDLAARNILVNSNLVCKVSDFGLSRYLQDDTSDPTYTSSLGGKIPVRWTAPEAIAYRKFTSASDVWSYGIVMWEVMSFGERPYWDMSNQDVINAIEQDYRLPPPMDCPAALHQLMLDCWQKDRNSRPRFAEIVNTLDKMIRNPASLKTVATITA
Description: as §2

MAP3K5 = target: T11, MAP3K5 (Homo sapiens, UniProt Q99683); experiment: DSF; type: binding
T11 construct: purchased in-house DSF panel (SGC Frankfurt)
T11 sequence (Q99683 659-951): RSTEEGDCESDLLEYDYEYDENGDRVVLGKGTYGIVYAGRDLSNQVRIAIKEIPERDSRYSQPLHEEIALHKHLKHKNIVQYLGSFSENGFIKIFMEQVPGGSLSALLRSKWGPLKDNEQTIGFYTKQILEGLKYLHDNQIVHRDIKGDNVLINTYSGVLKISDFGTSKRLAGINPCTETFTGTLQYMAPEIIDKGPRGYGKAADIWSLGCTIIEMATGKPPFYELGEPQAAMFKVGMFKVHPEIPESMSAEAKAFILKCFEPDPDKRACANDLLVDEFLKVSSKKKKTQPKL
Description: as §2

MAPK8 = target: T12, MAPK8 (Homo sapiens, UniProt P45983); experiment: DSF; type: binding
T12 construct: purchased in-house DSF panel (SGC Frankfurt)
T12 sequence (P45983 1-364): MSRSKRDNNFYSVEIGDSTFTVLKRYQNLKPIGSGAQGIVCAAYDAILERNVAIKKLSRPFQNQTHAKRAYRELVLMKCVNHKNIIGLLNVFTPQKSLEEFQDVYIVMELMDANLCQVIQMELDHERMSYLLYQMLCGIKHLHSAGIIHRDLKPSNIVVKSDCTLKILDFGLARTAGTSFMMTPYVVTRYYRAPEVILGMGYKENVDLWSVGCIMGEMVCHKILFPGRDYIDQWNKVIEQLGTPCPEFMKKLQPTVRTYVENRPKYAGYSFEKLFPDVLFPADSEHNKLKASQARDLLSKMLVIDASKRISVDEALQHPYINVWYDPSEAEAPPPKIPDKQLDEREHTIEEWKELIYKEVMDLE
Description: as §2

NEK7 = target: T13, NEK7 (Homo sapiens, UniProt Q8TDX7); experiment: DSF; type: binding
T13 construct: purchased in-house DSF panel (SGC Frankfurt)
T13 sequence (Q8TDX7 whole entry): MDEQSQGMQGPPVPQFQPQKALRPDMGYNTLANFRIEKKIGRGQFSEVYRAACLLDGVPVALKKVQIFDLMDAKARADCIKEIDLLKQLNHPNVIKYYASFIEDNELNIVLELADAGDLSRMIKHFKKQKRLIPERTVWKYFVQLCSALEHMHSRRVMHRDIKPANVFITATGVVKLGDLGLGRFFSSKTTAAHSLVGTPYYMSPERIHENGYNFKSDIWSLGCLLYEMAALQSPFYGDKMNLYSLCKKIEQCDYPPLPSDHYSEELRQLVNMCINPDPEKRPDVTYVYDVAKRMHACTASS
Description: as §2

RPS6KA5 = experiment: DSF; type: binding
Description: as §2

SPRK1 = target: T14, SPRK1 (Homo sapiens, UniProt Q96SB4); experiment: DSF; type: binding
T14 construct: purchased in-house DSF panel (SGC Frankfurt)
T14 sequence (Q96SB4 whole entry): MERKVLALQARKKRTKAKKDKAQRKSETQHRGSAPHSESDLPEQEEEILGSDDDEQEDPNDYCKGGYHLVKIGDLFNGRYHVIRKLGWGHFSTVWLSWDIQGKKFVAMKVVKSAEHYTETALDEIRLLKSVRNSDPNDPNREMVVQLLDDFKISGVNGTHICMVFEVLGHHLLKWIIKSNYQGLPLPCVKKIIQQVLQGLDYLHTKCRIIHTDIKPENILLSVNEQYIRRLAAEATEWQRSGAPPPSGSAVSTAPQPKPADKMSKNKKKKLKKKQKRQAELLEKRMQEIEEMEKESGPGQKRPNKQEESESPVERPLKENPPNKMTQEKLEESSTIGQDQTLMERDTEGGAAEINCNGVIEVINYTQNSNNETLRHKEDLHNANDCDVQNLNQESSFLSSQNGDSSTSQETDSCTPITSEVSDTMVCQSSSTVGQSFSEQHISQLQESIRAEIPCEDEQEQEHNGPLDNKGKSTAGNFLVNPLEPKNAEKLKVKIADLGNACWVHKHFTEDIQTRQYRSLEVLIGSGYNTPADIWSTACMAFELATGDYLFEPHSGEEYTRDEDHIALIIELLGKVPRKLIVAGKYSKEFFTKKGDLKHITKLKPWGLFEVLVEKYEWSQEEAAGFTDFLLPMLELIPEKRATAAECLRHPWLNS
Description: as §2

T1 sequence (Q9Y243 148-479): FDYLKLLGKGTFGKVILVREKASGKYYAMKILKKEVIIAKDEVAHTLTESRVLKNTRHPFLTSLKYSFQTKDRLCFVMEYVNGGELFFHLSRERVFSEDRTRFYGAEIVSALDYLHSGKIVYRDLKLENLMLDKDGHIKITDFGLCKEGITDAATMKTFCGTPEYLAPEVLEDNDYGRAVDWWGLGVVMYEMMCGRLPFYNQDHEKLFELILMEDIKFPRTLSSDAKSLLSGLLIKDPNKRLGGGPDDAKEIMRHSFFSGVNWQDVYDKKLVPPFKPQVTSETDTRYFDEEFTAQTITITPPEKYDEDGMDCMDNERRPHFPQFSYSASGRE

## COC(=O)c1cc(Nc2ccnc(NCCOCCNC(=O)OC(C)(C)C)n2)[nH]n1 [21d, methyl 5-((2-((2-(2-((tert-butoxycarbonyl)amino)ethoxy)ethyl)amino)pyrimidin-4-yl)amino)-1H-pyrazole-3-carboxylate]
AKT3
  ΔTm AKT3: 0.3 °C
DMPK1
  ΔTm DMPK1: 0.5 °C
EPHA5
  ΔTm EPHA5: 0.2 °C
FGFR3
  ΔTm FGFR3: 0.6 °C
MST4
  ΔTm MST4: 0.7 °C
UKL3
  ΔTm UKL3: 0.9 °C

## N#CCc1ccc(Nc2nccc(Nc3cc(C4CC4)[nH]n3)n2)cc1 [compound 1, reference compound]
DMPK1
  ΔTm DMPK1: 3.2 °C
EPHA5
  ΔTm EPHA5: 6.3 °C
FGFR3
  ΔTm FGFR3: 9.8 °C
MST4
  ΔTm MST4: 7.1 °C
UKL3
  ΔTm UKL3: 8.3 °C
CDK1/Cyclin B1
  EC50: 0.0631 ± 0.0104 µM
CDK5/CDK5R1
  EC50: 0.0303 ± 0.0103 µM
CDK5/CDK5R2
  EC50: 0.0119 ± 0.0028 µM

## CC(C)(C)OC(=O)Nc1ccc(CNc2nccc(Nc3cc(C(=O)OC(C)(C)C)[nH]n3)n2)cc1 [43d, tert-butyl 3-((2-((4-((tert-butoxycarbonyl)amino)benzyl)amino)pyrimidin-4-yl)amino)-1H-pyrazole-5-carboxylate]
AKT3
  ΔTm AKT3: 0.5 °C
DMPK1
  ΔTm DMPK1: -0.1 °C
EPHA5
  ΔTm EPHA5: -2.7 °C
EPHB1
  ΔTm EPHB1: 1.0 °C
MAP3K5
  ΔTm MAP3K5: 0.1 °C
MAPK8
  ΔTm MAPK8: -0.1 °C
MST4
  ΔTm MST4: -0.1 °C
NEK7
  ΔTm NEK7: -1.0 °C
RPS6KA5
  ΔTm RPS6KA5: 1.7 °C
SPRK1
  ΔTm SPRK1: 0.4 °C
UKL3
  ΔTm UKL3: 3.3 °C

## COC(=O)c1cc(Nc2ccnc(NCc3ccc(NC(=O)OC(C)(C)C)cc3)n2)[nH]n1 [21i, methyl 5-((2-((4-((tert-butoxycarbonyl)amino)benzyl)amino)pyrimidin-4-yl)amino)-1H-pyrazole-3-carboxylate]
AKT3
  ΔTm AKT3: -0.3 °C
DMPK1
  ΔTm DMPK1: 0.1 °C
EPHA5
  ΔTm EPHA5: 0.2 °C
FGFR3
  ΔTm FGFR3: 1.2 °C
MST4
  ΔTm MST4: -0.7 °C
UKL3
  ΔTm UKL3: 0.3 °C
CDK1/Cyclin B1
  EC50: 9.3 ± 5.79 µM
CDK5/CDK5R1
  EC50: 28.6 ± 4.65 µM
CDK5/CDK5R2
  EC50: 38.6 ± 5.85 µM

## CC(C)OC(=O)c1cc(Nc2ccnc(NCc3ccc(NC(=O)OC(C)(C)C)cc3)n2)n[nH]1 [42d, isopropyl 3-((2-((4-((tert-butoxycarbonyl)amino)benzyl)amino)pyrimidin-4-yl)amino)-1H-pyrazole-5-carboxylate]
AKT3
  ΔTm AKT3: 0.6 °C
DMPK1
  ΔTm DMPK1: -0.1 °C
EPHA5
  ΔTm EPHA5: -0.6 °C
EPHB1
  ΔTm EPHB1: 0.9 °C
MAP3K5
  ΔTm MAP3K5: 0.1 °C
MAPK8
  ΔTm MAPK8: -0.8 °C
MST4
  ΔTm MST4: 0.1 °C
NEK7
  ΔTm NEK7: -1.7 °C
RPS6KA5
  ΔTm RPS6KA5: 0.8 °C
SPRK1
  ΔTm SPRK1: -0.2 °C
UKL3
  ΔTm UKL3: 2.3 °C
